Measurements published in publication PMC12247020, “A Cyclized Helix‐Loop‐Helix Peptide as a Molecular Scaffold for Cell‐Membrane Permeable Inhibitors for the Interaction Between Estrogen Receptor α and Coactivator SRC1” (Chembiochem, 2025).
Read-outs that look alike come from different tables or passages of the source. Bridge positions count the residues as written; N and C are the ends. Peptide text beside a SMILES is read from it. * marks the point of attachment. X1 = CN(C)c1ccc2c(c1)Oc1cc(N(C)C)ccc1C21OC(=O)c2cc(NC(=O)C*)ccc21

Experiments:
ERα/LBD (ERα302–552) = molecular target: T1, ERα/LBD (ERα302–552) (Homo sapiens, UniProt P03372); assay: Fluorescence polarization (FP) direct binding of fluorescently labeled peptides to ERα/LBD
T1 construct: Recombinant ERα/LBD (ERα^302–552) was prepared as previously reported; made in house; host or cells: Escherichia coli BL21-CodonPlus-RP
T1 sequence (P03372 302-552): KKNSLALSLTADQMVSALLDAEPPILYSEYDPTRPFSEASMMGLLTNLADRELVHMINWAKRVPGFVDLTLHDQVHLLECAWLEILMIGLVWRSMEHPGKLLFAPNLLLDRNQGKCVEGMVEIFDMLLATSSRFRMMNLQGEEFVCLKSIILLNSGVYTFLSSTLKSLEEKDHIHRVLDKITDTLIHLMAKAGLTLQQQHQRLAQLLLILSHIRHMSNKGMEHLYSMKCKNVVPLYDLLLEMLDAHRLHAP
Description: The binding activity of cHLH‐ERα was examined by fluorescence polarization (FP) analysis.^[ [26], [29] ^] The cHLH peptides were labeled with tetramethylrhodamine (TMR) to provide the fluorescent cHLH peptide TMR‐cHLH‐ERα, and fluorescent TMR‐YT1‐RS as a negative control (Figure 1, Figure S2, Supporting Information).
1. Protein Expression and Purification
The plasmid encoding the LBD domain of ERα (ERα302-552), was prepared from the plasmid pF1KB7810 (Kazusa DNA Res. Inst. ) encoding the full length of Estrogen Receptor α as described by using pET -28a(+)vector [1]. […]
4. Fluorescence Polarization […]
Tris-HCl (pH 8.0), 25 mM NaCl, 10%(v/v) Glycerol, 1 mM TCEP as described. The concentration of FL-SRC1Box2 labeled with Fluorescein and TMR-cHLH-ERα and YT1-RS were determined from the absorption of Fluorescein or Tetramethylrhodamine. The respective peptide was incubated with ERα-LBD for 30 min in 20 mM Tris-HCl (pH 8.0), 25 mM NaCl with 1 mM 17β-estradiol, and the mixture was transferred into a 384-well microtiter well (Non-binding, Black, greiner bio -one) and the fluorescence polarization was measured on a spectrofluorometer (SpectraMax iD5, Molecular Devices) at 20 °C. The KD values were analyzed via a quadratic binding equation (Fig S5A, S5B) with the data fit to calculate by using KaleidaGraph 4.0 as described elsewhere. […]

[1] = tested on: MCF‐7 breast cancer cells; assay: Live cell confocal laser microscopy of TMR‐labeled peptides (cell membrane permeability); conditions: MCF‐7 cells, 3 μM TMR‐labeled peptide

CH3CO-C(FL)QLLTERHKILHRLLQEGSPSD-NH2 (Ac-C(fluorescein)QLLTERHKILHRLLQEGSPSD-NH2; not fully specified; printed as CH3CO-C(FL)QLLTERHKILHRLLQEGSPSD-NH2) [FL‐SRC1Box2, fluorescently labeled SRC1 box 2 peptide with the LXXLL motif, FP tracer, reference compound]
Kd (ERα/LBD (ERα302–552); FP, 20 nM labeled peptide, in the presence of 17β‐estradiol, 20 mM Tris-HCl pH 8.0, 25 mM NaCl, 30 min, 20 °C, quadratic binding equation (Fig S5A), read-out: K D value, binding to ERα/LBD): 7.8 µM

CC(C)C[C@@H]1NC(=O)[C@H](C)NC(=O)[C@H](C)NC(=O)[C@H](CC(C)C)NC(=O)[C@H](CCCCN)NC(=O)CNC(=O)CNC(=O)CNC(=O)CNC(=O)CNC(=O)CNC(=O)CNC(=O)[C@H](CCC(=O)O)NC(=O)[C@H](CC(C)C)NC(=O)[C@H](CCCNC(=N)N)NC(=O)[C@H](CCCNC(=N)N)NC(=O)[C@H](CC(C)C)NC(=O)[C@H](CCC(=O)O)NC(=O)[C@H](CCCNC(=N)N)NC(=O)[C@H](CCC(=O)O)NC(=O)[C@H](CC(C)C)NC(=O)[C@H](CCCNC(=N)N)NC(=O)[C@H](CCCNC(=N)N)NC(=O)[C@H](CC(C)C)NC(=O)[C@H](CCC(=O)O)NC(=O)[C@H](CCCNC(=N)N)NC(=O)[C@H](CSCC(=O)Nc2ccc3c(c2)C(=O)OC32c3ccc(N(C)C)cc3Oc3cc(N(C)C)ccc32)NC(=O)CNC(=O)CSC[C@@H](C(N)=O)NC(=O)[C@H](Cc2ccc(O)cc2)NC(=O)[C@H](C)NC(=O)[C@H](CCCCN)NC(=O)[C@H](CC(C)C)NC(=O)[C@H](CC(C)C)NC(=O)[C@H](CC(C)C)NC(=O)[C@H](CC(C)C)NC(=O)[C@H](CCCCN)NC(=O)[C@H](CC(C)C)NC(=O)[C@H](CCCCN)NC1=O [TMR‐cHLH‐ERα] ({CH2CO}-GC(X1)RELRRLERELRRLEGGGGGGGKLAALKLKLLLLKAYC-NH2; thioether N-39)
Kd (ERα/LBD (ERα302–552)): 0.285 µM

CC(C)C[C@@H]1NC(=O)[C@H](C)NC(=O)[C@H](C)NC(=O)[C@H](CC(C)C)NC(=O)[C@H](CCCCN)NC(=O)[C@H](C)NC(=O)[C@H](CCCCN)NC(=O)[C@H](CC(C)C)NC(=O)[C@H](C)NC(=O)[C@H](C)NC(=O)[C@H](CC(C)C)NC(=O)[C@H](CCCCN)NC(=O)CNC(=O)CNC(=O)CNC(=O)CNC(=O)CNC(=O)CNC(=O)CNC(=O)[C@H](CCC(=O)O)NC(=O)[C@H](CC(C)C)NC(=O)[C@H](CCCNC(=N)N)NC(=O)[C@H](CCCNC(=N)N)NC(=O)[C@H](CC(C)C)NC(=O)[C@H](CCC(=O)O)NC(=O)[C@H](CCCNC(=N)N)NC(=O)[C@H](CCC(=O)O)NC(=O)[C@H](CC(C)C)NC(=O)[C@H](CCCNC(=N)N)NC(=O)[C@H](CCCNC(=N)N)NC(=O)[C@H](CC(C)C)NC(=O)[C@H](CCC(=O)O)NC(=O)[C@H](CCCNC(=N)N)NC(=O)[C@H](CSCC(=O)Nc2ccc3c(c2)C(=O)OC32c3ccc(N(C)C)cc3Oc3cc(N(C)C)ccc32)NC(=O)CNC(=O)CSC[C@@H](C(N)=O)NC(=O)[C@H](Cc2ccc(O)cc2)NC(=O)[C@H](C)NC(=O)[C@H](CCCCN)NC1=O [TMR‐YT1‐RS] ({CH2CO}-GC(X1)RELRRLERELRRLEGGGGGGGKLAALKAKLAALKAYC-NH2; thioether N-39)
cell membrane permeability, confocal laser microscopy, 4 °C ([1]; 4 °C (pre‐chilled medium), fluorescence imaging): showed cell membrane permeability
cell membrane permeability, confocal laser microscopy, 37 °C ([1]; 5‐min incubation, 37 °C, 5% CO2, nuclei stained with Hoechst 33 342, fluorescence imaging): showed cell membrane permeability
